Data as given in patent publication US9278958B2, “Anti-cancer compounds” (KATHOLIEKE UNIVERSITEIT LEUVEN, priority 2012, dated 2016).
Where two headings read alike, the source gives them in different places.

Legend:
[1] = test system: CEM cells; test: Cytostatic assay, CEM; format: cell-based; details: Homo sapiens, CCRF-CEM
Summary of the method: (§1)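 Each cell line grows in the presence of compound for 48 h to 96 h, the duration chosen per line, at 37° C in a humid CO2-regulated incubator. Seeding is 5-7.5×10^4 cells per well, and final counts come from a Coulter counter.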

[2] = test system: Molt4/C8 cells; test: Cytostatic assay, Molt4/C8; format: cell-based; details: Table 2
Experimental: (§2) To each well of a 96-well microtiter plate were added 5-7.5×10^4 cells and a given amount of the test compound. The cells were allowed to proliferate for 48 h to 96 h (depending on the nature of the cell line) at 37° C. in a humidified CO2-controlled atmosphere. At the end of the incubation period, the cells were counted in a Coulter Counter (Coulter Electronics Ltd, Harpenden Herts, United Kingdom).

[3] = test system: Sup T1 cells; test: Cytostatic assay, Sup T1; format: cell-based; details: Homo sapiens, Table 2, read-out: Cytostatic activity (μM) Sup T 1
Experimental: as §2

[4] = test system: MT-2 cells; test: Cytostatic assay, MT-2; format: cell-based; details: Homo sapiens, MT2; Table 2
Experimental: as §2

[5] = test system: C8166 cells; test: Cytostatic assay, C8166; format: cell-based; details: Homo sapiens, Table 2
Experimental: as §2

[6] = test system: HUT-78 cells; test: Cytostatic assay, HUT-78; format: cell-based; details: Homo sapiens, HuT78; Table 2
Experimental: as §2

[7] = test system: MT-4 cells; test: Cytostatic assay, MT-4; format: cell-based; details: Homo sapiens, MT4; Table 2
Experimental: as §2

[8] = test system: HL60, human leukemia cells; test: Cytostatic assay, HL-60; format: cell-based; details: Table 2
Experimental: as §2

[9] = test system: U937, human monocytic cells; test: Cytostatic assay, U937; format: cell-based; details: U-937, Table 2
Experimental: as §2

[10] = test system: THP-1, human monocytic cells; test: Cytostatic assay, THP-1; format: cell-based; details: Table 2
Experimental: as §2

[11] = test system: Raji, human B-lymphoma cells; test: Cytostatic assay, Raji; format: cell-based; details: Table 2
Experimental: as §2

[12] = test system: OST TK- osteosarcoma cells; test: Cytostatic assay, OST TK-; format: cell-based; details: Homo sapiens; Table 3
Experimental: as §2

[13] = test system: MCF-7 mammary carcinoma cells; test: Cytostatic assay, MCF-7; format: cell-based; details: Homo sapiens, MCF7; Table 3
Experimental: as §2

[14] = test system: FM3A mammary carcinoma cells; test: Cytostatic assay, FM3A; format: cell-based, murine; details: Mus musculus, Table 3
Experimental: as §2

[15] = test system: HeLa cervix carcinoma cells; test: Cytostatic assay, HeLa; format: cell-based, human; details: Homo sapiens; Table 3; read-out: Cytostatic activity (μM) Hela
Summary of the method: as §1

[16] = test system: Caki-1 kidney carcinoma cells; test: Cytostatic assay, Caki-1; format: cell-based; details: Homo sapiens, Table 3
Experimental: as §2

[17] = test system: Caki-2 kidney carcinoma cells; test: Cytostatic assay, Caki-2; format: cell-based; details: Homo sapiens, Table 3
Experimental: as §2

[18] = test system: 293T embryonic kidney cells; test: Cytostatic assay, 293T; format: cell-based; details: Homo sapiens, HEK-293T; Table 3
Experimental: as §2

[19] = test system: HT29 colorectal carcinoma cells; test: Cytostatic assay, HT29; format: cell-based; details: Homo sapiens, HT-29; Table 3
Experimental: as §2

[20] = test system: U87 glioma cells; test: Cytostatic assay, U87; format: cell-based; details: Homo sapiens, U-87 MG; Table 3
Experimental: as §2

[21] = test system: HEL embryonic lung fibroblast cells; test: Cytostatic assay, HEL; format: cell-based; details: Homo sapiens, Table 3
Experimental: as §2

[22] = test system: BAEC aortic endothelial cells; test: Cytostatic assay, BAEC; format: cell-based, bovine; details: Bos taurus, Table 3
Experimental: as §2

[23] = test system: PC3 (rega) prostate cancer cells; test: Cytostatic assay, PC3 (rega); format: cell-based; details: Table 4
Experimental: as §2

[24] = test system: BPH-1 (UZ); test: Cytostatic assay, BPH-1 (UZ); format: cell-based; details: Homo sapiens, Table 4
Experimental: as §2

[25] = test system: DU145 (UZ) prostate cancer cells; test: Cytostatic assay, DU145 (UZ); format: cell-based; details: Homo sapiens, DU-145; Table 4
Experimental: as §2

[26] = test system: PC-3 (UZ) prostate cancer cells; test: Cytostatic assay, PC-3 (UZ); format: cell-based; details: Table 4
Experimental: as §2

[27] = test system: LNCaP (UZ) prostate cancer cells; test: Cytostatic assay, LNCaP (UZ); format: cell-based; details: Homo sapiens, Table 4
Experimental: as §2

[28] = test system: PNT1A (UZ) prostate cells; test: Cytostatic assay, PNT1A (UZ); format: cell-based; details: Homo sapiens, Table 4
Experimental: as §2

[29] = test system: 22Rv1 (UZ) prostate cancer cells; test: Cytostatic assay, 22Rv1 (UZ); format: cell-based; details: Homo sapiens, Table 4
Experimental: as §2

[30] = test system: PLC/PRF/5 hepatoma cells; test: Cytostatic assay, PLC/PRF/5; format: cell-based; details: Homo sapiens, Table 4
Experimental: as §2

[31] = test system: HepG2C3A hepatoma cells; test: Cytostatic assay, HepG2C3A; format: cell-based; details: Homo sapiens, HepG2/C3A; Table 4
Experimental: as §2

[32] = test system: Huh-7 hepatoma cells; test: Cytostatic assay, Huh-7; format: cell-based; details: Homo sapiens, Table 4
Experimental: as §2

[33] = test system: DNA synthesis in CEM cells; test: Antimetabolic activity assay, [CH3-3H]dThd incorporation (DNA synthesis), CEM; format: cell-based; details: Homo sapiens, CCRF-CEM, incorporation into TCA-insoluble material
Experimental: (§3) Radiolabeled precursors of DNA synthesis ([^3H-methyl]dThd), RNA synthesis ([5-^3H]Urd), and protein synthesis ([4,5-^3H]leu) were added to 10^5 CEM cell cultures in the 200 μl-wells of a microtiter plate at 1 μCi for each precursor in the presence of varying concentrations of the test compounds (5-fold dilution series). The cells were allowed to proliferate for 20 hrs at 37° C. in a humidified, CO2-controlled atmosphere. At the end of the incubation period, the contents of the wells were brought onto 25-mm glass fiber filters and further processed for measurement of acid-insoluble radioactivity.

[34] = test system: DNA synthesis in Raji cells; test: Antimetabolic activity assay, [CH3-3H]dThd incorporation (DNA synthesis), Raji; format: cell-based; details: Homo sapiens, incorporation into TCA-insoluble material
Experimental: [The procedure below names another cell line; the source lists this cell line under the same test.] as §3

[35] = test system: RNA synthesis in CEM cells; test: Antimetabolic activity assay, [5-3H]uridine incorporation (RNA synthesis), CEM; format: cell-based; details: Homo sapiens, CCRF-CEM, incorporation into TCA-insoluble material
Experimental: as §3

[36] = test system: RNA synthesis in Raji cells; test: Antimetabolic activity assay, [5-3H]uridine incorporation (RNA synthesis), Raji; format: cell-based; details: Homo sapiens, incorporation into TCA-insoluble material
Experimental: [The procedure below names another cell line; the source lists this cell line under the same test.] as §3

[37] = test system: protein synthesis in CEM cells; test: Antimetabolic activity assay, [4,5-3H]leucine incorporation (protein synthesis), CEM; format: cell-based; details: Homo sapiens, CCRF-CEM, incorporation into TCA-insoluble material
Experimental: as §3

[38] = test system: protein synthesis in Raji cells; test: Antimetabolic activity assay, [4,5-3H]leucine incorporation (protein synthesis), Raji; format: cell-based; details: Homo sapiens, incorporation into TCA-insoluble material
Experimental: [The procedure below names another cell line; the source lists this cell line under the same test.] as §3

[39] = test system: L1210 cells; test: Cytostatic assay, L1210; format: cell-based; details: Mus musculus, Table 2
Experimental: as §2

[40] = Table 1a, read-out: IC50 μM (CEM)
[41] = Table 2, read-out: Cytostatic activity (μM) CEM

Row | SMILES | IC50 [1, 40] [µM] | IC50 [1, 41] [µM] | IC50 [2] [µM] | IC50 [3] [µM] | IC50 [4] [µM] | IC50 [5] [µM] | IC50 [6] [µM] | IC50 [7] [µM] | IC50 [8] [µM] | IC50 [9] [µM] | IC50 [10] [µM] | IC50 [11] [µM] | IC50 [12] [µM] | IC50 [13] [µM] | IC50 [14] [µM] | IC50 [15] [µM] | IC50 [16] [µM] | IC50 [17] [µM] | IC50 [18] [µM] | IC50 [19] [µM] | other results
1 | COC(=O)c1cc(CCc2cc(OC)ccc2OC)sc1N [TR584, 2-Amino-5-[2-(2,5-dimethoxy-phenyl)-ethyl]-thiophene-3-carboxylic acid methyl ester] | 1.6 | 1.6 ± 0.071 | 0.42 ± 0.11 | 0.61 ± 0.26 | 4.2 ± 0.79 | 1.4 ± 0.76 | 2.6 ± 2.1 | 1.6 ± 0.21 | 0.89 ± 0.3 | 4.2 ± 0.07 | 3.1 ± 0.07 | 2.2 ± 0.28 | 0.68 ± 0.33 | 0.93 ± 0.23 | 2.5 ± 0.28 | 0.83 ± 0.25 | 2.5 ± 0.6 | 0.93 ± 0.28 | 1.9 | 1.8 ± 0.21 | IC50 [20]: 1.8 ± 0.071 µM; IC50 [21]: 0.87 ± 0.014 µM; IC50 [22]: 2 ± 0.28 µM; IC50 [23]: 0.36 ± 0.18 µM; IC50 [24]: 1.3 ± 0.071 µM; IC50 [25]: 1.6 µM; IC50 [26]: 0.81 ± 0.42 µM; IC50 [27]: 0.38 ± 0.11 µM; IC50 [28]: 0.77 ± 0.31 µM; IC50 [29]: 0.31 ± 0.087 µM; IC50 [30]: 1.3 ± 0.21 µM; IC50 [31]: 4.5 ± 1.7 µM; IC50 [32]: 2.2 ± 0.49 µM; IC50 [33]: 7.5 ± 5.5 µM; IC50 [34]: 82 ± 6 µM; IC50 [35]: 2.4 ± 0.2 µM; IC50 [36]: ≥ 100 µM; IC50 [37]: 1.1 ± 0.5 µM; IC50 [38]: 62 ± 1 µM
2 | COc1ccccc1CCc1cc(C#N)c(N)s1 [TR585, 2-Amino-5-[2-(2-methoxy-phenyl)-ethyl]-thiophene-3-carbonitrile] | 8.3 | 8.3 ± 2.4 | 2 ± 0.2 | 4.7 ± 0.38 | 4.75 ± 0.08 | 16 ± 6.5 | 7.1 ± 1.3 | 8.1 ± 0.78 | 3.5 ± 0.57 | 3.4 ± 2.8 | 3.8 ± 0.6 | 13 ± 3.5 | 3.96 ± 1.56 | 5.42 ± 0.69 | 25 ± 0.71 | 8.3 ± 1.5 | 4.6 ± 1.3 | 4.8 ± 4.5 | 10 ± 0.071 | 8.9 ± 0.92 | IC50 [39]: 15 ± 4 µM; IC50 [20]: 10 ± 0.78 µM; IC50 [21]: 7.2 ± 0.49 µM; IC50 [22]: 9.7 ± 1.8 µM; IC50 [23]: 1.7 ± 0.35 µM; IC50 [24]: 7 ± 0.42 µM; IC50 [25]: 6.4 ± 1.8 µM; IC50 [26]: 2.6 ± 0.64 µM; IC50 [27]: 2.7 ± 0.95 µM; IC50 [28]: 8 ± 0.42 µM; IC50 [29]: 9.4 ± 5.8 µM; IC50 [30]: 6.7 ± 0.64 µM; IC50 [31]: 7.2 ± 4 µM; IC50 [32]: 8.3 ± 0.78 µM; IC50 [33]: > 100 µM; IC50 [34]: ≥ 100 µM; IC50 [35]: ≥ 100 µM; IC50 [36]: ≥ 100 µM; IC50 [37]: 11 ± 8 µM; IC50 [38]: ≥ 100 µM
